Measurements: US7144731B2, “SCF antibody compositions and methods of using the same” (Amgen Inc., priority 1989, dated 2006)
Entries after “also recorded” stand apart in the source; their conditions may differ.

B1: SCF^1-130: E. coli human SCF analog, amino acids 1 to 130 (protein)
chain: EGICRNRVTNNVKDVTKLVANLPKDYMITLKYVPGMDVLPSHCWISEMVVQLSDSLTDLLDKFSNISEGLSNYSIIDKLVNIVDDLVECVKENSSKDLKKSFKSPEPRLFTPEEFFRIFNRSIDAFKDFV

How the values were obtained:
Balb/c mice = assay: 5-FU experimental thrombocytopenia; type: in vivo, mouse
Protocol: Balb/c mice were either untreated or treated intravenously with 5-fluorouracil (150 mg/kg) on Day 0 (n=5). Blood analyses were performed on the indicated days as in legend to FIG. 53. Error bars are present, but not discernable, in some of the control points. […] After Day 12, platelet counts appeared to cycle from normal to high levels throughout the 40 day testing period. […] Two Balb/c mice per group were sacrificed at the indicated days. Cells from bone marrow (Panel A) or spleen (Panel B) were aliquoted at 100,000/well of a microtiter plate and stained for acetylcholinesterase according to published procedures, Long et al., Immature megakaryocytes in the mouse: Morphology and quantitation by acetlycholinesterase staining. Blood 58: 1032, 1981. Data points are the percentage of ACH+ cells per well for individual animals.
Platelet volumes also increase after 5-FU (FIG. 57). The data in this figure were generated from the same blood samples collected in FIG. 55. Mean Platelet Volume (MPV) is one of the parameters analyzed by the Sysmex Cell Analyzer.
The possibility of a relationship between SCF and the physiological regulator of platelet production induced in the 5-FU thrombocytopenic model was explored. 5-FU was given to normal mice and SCF mRNA expression levels quantitated in bone marrow cells collected on the days indicated in FIG. 58. In FIG. 58, one million cells were lysed in SDS buffer and the lysate was analyzed for the presence of mRNA specific for murine SCF. […] RNA sense strand standards for quantitation of the hybridization assays were produced by runoff transcription of the same region in the direction opposite to the direction of probe synthesis using tracer quantities of ^35S-UTP and 0.2 mM unlabeled UTP.
SCF or actin mRNA levels were quantitated as follows. […] After addition of 5 mls Liquiscint (New England Nuclear; Boston, Mass.) samples were counted 20 minutes or to 3% error. […]

UT-7 cells = assay: UT-7 ^3H-thymidine uptake assay; type: cell-based, human
Protocol: UT-7 cells are a human megakaryocyte, huGM-CSF responsive cell line obtained from John Adamson, New York Blood Center, New York, N.Y. UT-7 cells were cultured in Iscove's Modified Dulbecco's Medium, 10% FBS, 1× glutamine, 5 \g/ml huGM-CSF. Cells are passaged twice a week at 1×10^5 cells/ml.
Cells were washed twice in phosphate buffered saline (PBS) and resuspended in RPMI medium with 4% FBS and glutamine penicillin streptomycin (GPS) (Irvine Scientific Cat No. 9316 used at 1% volume per volume) at 4×10^4 cells/ml before use. Human SCF along with specific samples were added to 4000 cells/well in 96 well plates and were cultured for 72 hrs. 0.5 uCi/well of ^3H-Thymidine was then added to each plate, plates were harvested and counted 4 hours later.

[1] = target: T1, SCF receptor (OCIM1 plasma membrane) (Homo sapiens, UniProt P10721); assay: SCF radioreceptor assay; type: binding
T1 construct: endogenous in cells; host or cells: OCIM1 human erythroleukemic cells, plasma membrane preparation
Protocol: OCIM1 cells, [Papayannopoulou et al., Blood 72:1029–1038 (1988)] are a human erythroleukemic cell line expressing many human SCF receptors per cell. These cells are grown in Iscove's Modified Dulbecco's Medium, 10% FBS, and 1× glutamine and passaged 3 times a week to 1×10^5 cells/ml.
Preparation of the OCIM1 plasma membrane is as follows with all steps performed on ice.
First, 40 T175 flasks of cells were grown-up in OCIM1 culture medium, for a total of 1.9×10^9 […]. The conditioned medium and 1 mM Phenyl Methyl Sulfonyl Fluoride (PMSF) protease inhibitor, was spun down in 8×250 ml tubes at 1000 rpm for 10 minutes at 4° C. Cells were washed with PBS and repelleted in 4×50 ml centrifuge tubes at 1000 rpm for 10 minutes at 4° C. Cells were resuspended in 20 ml ice cold PBS with glucose sodium pyruvate (Gibco Cat #310-4287). The 20 ml cell solution was put into a pre-pressurized, pre-chilled (4° C.) “cell bomb” designed to lyse the cells. Cells were pressurized at 400–650 PSI for 10 minutes to establish equilibrium. When the pressure is released cell lysis occurs.
At this point the cells were checked for the percentage of cell lysis. 90% lysis was common. The cell suspension was resuspended in 80 mls sucrose buffer (0.25M sucrose, 10 mM Tris, 1 mM EDTA in double distilled (dd) H2O, filtered through a 0.45 u filter, pH 7.0) and divided between two 40 ml screwcap tubes. Tubes were spun at 5900 RPM for 10 minutes in a Beckman J2-21 centrifuge, JA-20 rotor at 4° C. The supernatants were saved and spun one more time as above to further remove any unwanted material. Supernatants were saved and distributed equally into 2 nalgene 40 ml centrifuge tubes. These supernatants were centrifuged at 16,000 RPM 4° C. for 30 min. in J2-21 centrifuge, JA-20 rotor. These supernatants were discarded being careful to save pellets. Each pellet was resuspended in sucrose buffer so there were 20 mls per tube in 4×36 ml plastic ultracentrifuge tubes. Using a 20 ml syringe and a large trochar, the solution was carefully underlayered in each tube with ice cold 36% sucrose solution (36.1 g sucrose/100 mls ddH2O), bringing the level of the liquid to within 2 mm of the top of the tube. Without disturbing the interface, each tube was carefully placed into each of […] titanium ultracentrifuge tubes. Tubes were centrifuged at 27,000 RPM, 4° C. for 75 minutes in an ultracentrifuge. These tubes were carefully removed from the rotor and from titanium buckets, placed in a rack with the 36% sucrose interface visible. The membraneous material at the interface was collected with a pasteur pipet and transfered into 2 clean nalgene 40 ml centrifuge tubes. Volume was brought up to 40 mls with ice cold sucrose buffer. Tubes were balanced and centrifuged as before at 5900 RPM in J2-21 centrifuge. […]

| Molecule | megakaryocyte numbers (ACH+ cells) in bone marrow and spleen (Balb/c mice; 150 mg/kg i.v.) | platelet volumes (Balb/c mice; 150 mg/kg i.v.) | platelet counts, time course (Balb/c mice; 150 mg/kg i.v. on Day 0) | specific activity in the UT-7 assay (UT-7 cells) | specific activity in the radioreceptor assay [1] |
| --- | --- | --- | --- | --- | --- |
| O=c1[nH]cc(F)c(=O)[nH]1 [5-FU, 5-fluorouracil] | rise dramatically | increase | thrombocytopenic by Day 5; also recorded: rebound thrombocytosis |  |  |
| B1 |  |  |  | about 15 % of the value for SCF^1-164 | about 50 % of the value for SCF^1-164 |
